Experiments:
recombinant Plk1 protein = biological target: T1, recombinant Plk1 protein (Homo sapiens, UniProt P53350); experiment: Plk1 kinase activity inhibition assay (33P-ATP, alpha casein substrate, flash plates); format: biochemical; conditions: enzymatic assay, 100 nM Li-ATP, 80 minutes at 30° C.
T1 construct: histidine tag (N); made in house; host or cells: SF9 insect cells
In short: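 IC50 derived from radioactive flash-plate counts of 33P-labelled alpha casein after 80 min at 30 °C. Reaction: 100 nM 33P-containing ATP, 50–100 ng His-tagged Plk1 (SF9-expressed), 500 ng casein per well, HEPES pH 7.5 buffer with MgCl2/MnCl2.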

T1 sequence (P53350 whole entry): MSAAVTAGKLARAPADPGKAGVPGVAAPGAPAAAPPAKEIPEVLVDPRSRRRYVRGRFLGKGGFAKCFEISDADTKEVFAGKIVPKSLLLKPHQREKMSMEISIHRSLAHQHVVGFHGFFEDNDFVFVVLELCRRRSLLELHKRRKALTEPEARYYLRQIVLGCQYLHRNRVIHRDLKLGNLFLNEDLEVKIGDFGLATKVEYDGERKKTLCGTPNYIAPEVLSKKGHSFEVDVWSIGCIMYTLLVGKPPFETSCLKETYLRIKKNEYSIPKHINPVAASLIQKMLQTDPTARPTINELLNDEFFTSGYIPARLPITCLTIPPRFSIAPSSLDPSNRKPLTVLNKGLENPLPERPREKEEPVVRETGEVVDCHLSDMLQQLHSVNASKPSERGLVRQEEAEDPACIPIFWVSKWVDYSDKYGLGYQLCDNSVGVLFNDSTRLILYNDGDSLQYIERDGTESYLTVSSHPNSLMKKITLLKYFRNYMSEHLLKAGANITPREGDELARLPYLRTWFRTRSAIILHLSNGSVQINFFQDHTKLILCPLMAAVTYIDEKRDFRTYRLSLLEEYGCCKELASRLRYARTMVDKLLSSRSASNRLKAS

IC50 (recombinant Plk1 protein) | melting point | Compound
10 to 100 nM | 248 to 249 °C (dec.) | NC(=O)c1sc(-n2cnc3cnc(Cl)cc32)cc1OCc1ccccc1C(F)(F)F [Example 1, 5-(6-Chloro-1H-imidazo[4,5-c]pyridin-1-yl)-3-{[2-(trifluoromethyl)benzyl]oxy}thiophene-2-carboxamide]
10 to 100 nM | 226 to 227 °C (dec.) | NC(=O)c1sc(-n2cnc3cnccc32)cc1OCc1ccccc1C(F)(F)F [Example 2, 5-(1H-Imidazo[4,5-c]pyridin-1-yl)-3-{[2-(trifluoromethyl)benzyl]oxy}thio-phene-2-carboxamide]
10 to 100 nM |  | C[C@@H](Oc1cc(-n2cnc3cnc(CN4CCN(CCC#N)CC4)cc32)sc1C(N)=O)c1ccccc1C(F)(F)F [Example 82, 5-(6-{[4-(2-cyanoethyl)piperazin-1-yl]methyl}-1H-imidazo[4,5-c]pyridin-1-yl)-3-{(1R)-1-[2-(trifluoromethyl)phenyl]ethoxy}thiophene-2-carboxamide]
10 to 100 nM |  | CC(Oc1cc(-n2cnc3ccncc32)sc1C(N)=O)c1ccccc1C(F)(F)F (stereo not drawn) [Example 13, 5-(3H-Imidazo[4,5-c]pyridin-3-yl)-3-{1-[2-(trifluoromethyl)phenyl]ethoxy}thiophene-2-carboxamide]
10 to 100 nM |  | C[C@@H](Oc1cc(-n2cnc3cc(CO)ncc32)sc1C(N)=O)c1ccccc1C(F)(F)F [Example 47, 5-[6-(hydroxymethyl)-3H-imidazo[4,5-c]pyridin-3-yl]-3-{(1R)-1-[2-(trifluoromethyl)phenyl]ethoxy}thiophene-2-carboxamide]
100 to 1000 nM |  | NC(=O)c1sc(-n2cnc3cnc(C(=O)NCCN4CCOCC4)cc32)cc1OCc1ccccc1C(F)(F)F [Example 5, 1-(5-Carbamoyl-4-{[2-(trifluoromethyl)benzyl]oxy}-2-thienyl)-N-(2-morpholin-4-ylethyl)-1H-imidazo[4,5-c]pyridine-6-carboxamide]
< 10 nM |  | C[C@@H](Oc1cc(-n2cnc3cnc(CN4CCN(C(=O)N(C)C)CC4)cc32)sc1C(N)=O)c1ccccc1Br [Example 133]
